Measured values as given in patent US20100047166A1, “ANTIBODIES AND RELATED MOLECULES THAT BIND TO 58P1D12 PROTEINS” (priority 2008, published 2010).

Tested on: LAPC9-AI prostate tumor xenografts
Assay: Established LAPC9-AI prostate tumor xenografts in tibiae, monotherapy and combination with Carboplatin
Assay type: in vivo, SCID mice
Conditions: day 33; MAb 2 mg loading then 1.0 mg i.p. two times a week, 7 doses; Carboplatin 40 mg/kg i.v. days 7, 11, 15, 19, 22, 26; vs control antibody
Description: FIG. 16. […] The tumors were allowed to establish for 7 days, at which time the animals were randomized and assigned to four different groups (n=10 in each group) as indicated in the graph. […] Carboplatin (40 mg/kg) was administered to the mice intravenously (i.v.) on days 7, 11, 15, 19, 22 and 26. On day 33 all mice were sacrificed and the tumors were excised and weighed on an electronic balance.
The tumors were allowed to establish for 7 days, at which time the animals were randomized and assigned to four different groups (n=10 in each group). […] Carboplatin (40 mg/kg) was administered to the mice intravenously (i.v.) on days 7, 11, 15, 19, 22 and 26. On day 33 all mice were sacrificed and the tumors were excised and weighed on an electronic balance.

N.N.O=C([O-])C1(C(=O)[O-])CCC1.[Pt+2] [Carboplatin, reference compound]
inhibition of tumor growth (tumor weight): 87%
